From US20050203011A1, “Mitigating symptoms and behaviors of substance abuse by modulating GDNF or BDNF pathway activity” (The Regents of the University of California, priority 2003, published 2005)

What was measured:
[1] = tested on: Male Long Evans rats; test: Ethanol and sucrose self-administration in the two-bottle preference test; assay type: in vivo, rat; settings: ibogaine i.p.
From the text: Male Long Evans rats were allowed continuous access to two bottles, one containing 10% ethanol (10 E) in tap water and the other containing tap water. […] Each subject received each dose, with one injection per week. Next, subjects were exposed to 2 bottles, one containing 10% sucrose (10 S) in tap water and the other containing tap water.

[2] = tested on: rats; test: Ethanol reinstatement after extinction, systemic ibogaine; assay type: in vivo, rat; settings: 40 mg/kg i.p., 3 hours before test
From the text: The eight rats used in the operant self-administration study were also used to study ethanolseeking after a period of extinction. Following a period of stable responding for ethanol, rats underwent extinction in which no ethanol was delivered following active lever responses.

[3] = tested on: tyrosine hydroxylase (TH); test: Tyrosine hydroxylase (TH) protein levels in SHSY5Y cells; assay type: cell-based, human; settings: 100 mM ethanol 24 hours, GDNF 100 ng/ml or ibogaine 10 μM added for last 12 hours
Description: Panel A: SHSY5Y cells were treated with different concentrations (0, 10, 25, and 100 mM) of ethanol for 24 hours. TH protein levels and control Actin levels were determined by Western blot analysis. Histogram depicts the mean ratio (TI/actin)±SD of 3 experiments. Panel B: Cells were treated with media (control), 100 ng/ml of GDNF for 12 h (lane 1), 100 mM ethanol for 24 hours (lane 2), or 100 mM ethanol for 24 hours to which 100 ng/ml GDNF was added for the last 12 hours (lane 3). The cells were lysed for Western blot analysis. Histogram depicts the mean ratio (TH/actin)±SD of 3 experiments. […] Histogram depicts the mean ratio (TH/actin)±SD of 3 experiments.

[4] = tested on: rats; test: Intra-VTA minipump infusion of anti-GDNF neutralizing antibodies, ethanol self-administration after ibogaine; assay type: in vivo, rat; settings: 3 hours after ibogaine 40 mg/kg i.p., control subjects (intra-VTA mouse IgG)
Description: An osmotic minipump (Alzet) was then connected to each of the two guide cannulae and was implanted subcutaneously for continuous infusion of either anti GDNF neutralizing antibodies (600 ng/12 N^ol/side/day) or mouse IgG (600 ng/12 μl/side/day).

[5] = tested on: Ret; test: Ret phosphorylation in SHSY5Y cells; assay type: cell-based, human; settings: dose- and time-dependent
Description: Expression of GDNF and control Actin were analyzed by RT-PCR (n=4). […] GDNF in the media was detected by an ELISA assay. Histogram depicts the mean±SD of GDNF secretion in 3 experiments. […] Ret was immunoprecipitated with anti-Ret antibodies followed by Western blot analysis with anti GFRα1 antibodies. The levels of GFRα1 in the homogenates were determined by Western blot analysis (n=3). […] Ret was immunoprecipitated followed by Western blot analysis with anti-phospho tyrosine or anti-Ret antibodies (n=3). […] Trk phosphorylation was analyzed by Western blot analysis with anti-phospho-Trk antibodies. The levels of TrkB were also determined by Western blot analysis (n=3). Panel F: Cells were pre-incubated with 0.3 unit/ml PI-PLC for 1 h (lanes 3 and 4). […] Ret phosphorylation was determined as described above (n=4). […] Treatment with 50 ng/ml GDNF was used as a positive control (lane 5). The cells were lysed and Ret phosphorylation was analyzed as described above (n=3).
Cells were collected and lysed in RIPA buffer (50 mM Tris-Cl, pH 7.6, 150 mM NaCl, 1 % NP40, 0.1% SDS, 0.5% sodium deoxycholate, 2 mM EDTA, protease inhibitor cocktail and 10 mM sodium orthovanadate). Homogenates were incubated with 5 N^og anti-Ret antibody in TBS-T buffer (20 mM Tris-Cl, pH7.6, 137 mM NaCl and 1% NP-40) overnight at 4° C., followed by 2 hours incubation with Protein G agarose. […]

[6] = tested on: GDNF; test: GDNF expression in SHSY5Y cells (RT-PCR); assay type: cell-based, human
Description: SHSY5Y human neuroblastoma cells were grown in Dulbecco's modified Eagle's medium (DMEM) containing 10% fetal bovine serum (FBS) plus 100 units/ml penicillin and 100 μg/ml streptomycin. Prior to experiments, the medium was replaced with DMEM containing 1% FBS.
Total RNA was isolated using Trizol reagent and reverse transcribed using Reverse Transcription System kit with the oligo (dT)15 primer at 42ûC for 30 minutes. GDNF, Actin or GPDH expressions were analyzed by RT-PCR. The GDNF primers were based on the coding frame of the human GDNF gene: upstream, 5′-TGCCAGAGGATTATCCTGATCAGTTCG ATG3′ (SEQ ID NO: 1); and downstream, 5′-TTGTCGTACGTTGTCTCAGCTGCATCGCAA-3′ (SEQ ID NO:2). The Actin primers were based on the human Actin gene: upstream, 5′-TCATGAAGTGTGACGTTGACATC-3′ (SEQ ID NO:3); and downstream, 5′-AGAAGCATTTGCGGTGGACGATG-3′ (SEQ ID NO:4). The GPDH primers were based on the rat GPDH gene: upstream, 5′-TGAAGGTCGGTGTCAACGGATTTGGC-3′ (SEQ ID NO:5); and downstream, 5′-CATGTAGGCCATGAGGTCCACCAC-3′ (SEQ ID NO:6). […]
After completion of PCR, 10 μl of each product was separated by 1.8% agarose gel in Tris/acetic acid/EDTA buffer with 0.25N^og/ml ethidium bromide, photographed by Eagle Eye II (Stratagene), and quantified by NIH Image 1.61.

[7] = tested on: GDNF; test: GDNF expression in the midbrain after i.p. ibogaine (RT-PCR), rats; assay type: in vivo, rat; settings: 40 mg/kg i.p., 1, 6 or 12 h post injection
Description: Total RNA was isolated using Trizol reagent and reverse transcribed using Reverse Transcription System kit with the oligo (dT)15 primer at 42ûC for 30 minutes. GDNF, Actin or GPDH expressions were analyzed by RT-PCR. The GDNF primers were based on the coding frame of the human GDNF gene: upstream, 5′-TGCCAGAGGATTATCCTGATCAGTTCG ATG3′ (SEQ ID NO: 1); and downstream, 5′-TTGTCGTACGTTGTCTCAGCTGCATCGCAA-3′ (SEQ ID NO:2). The Actin primers were based on the human Actin gene: upstream, 5′-TCATGAAGTGTGACGTTGACATC-3′ (SEQ ID NO:3); and downstream, 5′-AGAAGCATTTGCGGTGGACGATG-3′ (SEQ ID NO:4). The GPDH primers were based on the rat GPDH gene: upstream, 5′-TGAAGGTCGGTGTCAACGGATTTGGC-3′ (SEQ ID NO:5); and downstream, 5′-CATGTAGGCCATGAGGTCCACCAC-3′ (SEQ ID NO:6). PCR conditions were optimized to specifically ensure that the amplification reactions are within the linear range by testing a range of 25-40 PCR cycles. The optimal numbers of cycles used were: 30 cycles for controls GPDH and actin and 35 cycles for GDNF.
Male C57B16 mice or Long Evans rats were habituated with 3 saline injections over 3 days followed by i.p. administration of 40 mg/kg ibogaine-HCl. The animals were sacrificed 1, 6 or 12 hours post injection, and brain regions were excised and stored at −80° C. until use for analysis of GDNF expression by RT-PCR.

12-methoxyibogamine [ibogaine]
ethanol intake ([1]; continuous access to ethanol in home cage, measured 24 hours after injection): reduced | preference for ethanol ([1]; continuous access, 24 hours after injection): reduced | reinstatement of lever pressing for ethanol [2]: reduced | ethanol-induced increase in TH immunoreactivity [3]: inhibited | decrease in responding for ethanol [4]: 79.1% | Ret phosphorylation [5]: induced | duration of increase in GDNF expression [6]: up to 12 hours | GDNF expression ([6]; 10 μM, dose- and time-dependent): increase | expression of GDNF in the midbrain [7]: increase
